Laboratory results published in patent publication US20150057246A1, “SILYL-CONTAINING HETEROCYCLIC COMPOUNDS AND METHODS OF USE THEREOF FOR THE TREATMENT OF VIRAL DISEASES” (priority 2012, published 2015).
Read-outs that look alike come from different tables or passages of the source.

Legend:
[1] = test system: HCV 1a replicon; assay: Cell-based HCV replicon assay (TaqMan), genotype 1a replicon; conditions: HCV genotype 1a replicon cells, replicon RNA by real time PCR, day 3, EC90 = concentration for ΔCT=3.2 over baseline
Protocol: (§1) Measurement of inhibition by compounds of the present invention was performed using the HCV replicon system. Several different replicons encoding different HCV genotypes or mutations were used. In addition, potency measurements were made using different formats of the replicon assay, including different ways of measurements and different plating formats. See Jan M. Vrolijk et al., A replicons-based bioassay for the measurement of interferons in patients with chronic hepatitis C, 110 J. VIROLOGICAL METHODS 201 (2003); Steven S. Carroll et al., Inhibition of Hepatitis C Virus RNA Replication by 2′-Modified Nucleoside Analogs, 278(14) J. BIOLOGICAL CHEMISTRY 11979 (2003). However, the underlying principles are common to all of these determinations, and are outlined below.
(§2) TaqMan®-Based Assay Protocol:
(§3) Compounds of the present invention were assayed for cell-based anti-HCV activity using the following protocol. Replicon cells were seeded at 5000 cells/well in 96-well collagen I-coated Nunc plates in the presence of the test compound. Various concentrations of test compound, typically in 10 serial 2-fold dilutions, were added to the assay mixture, with the starting concentration ranging from 250 μM to 1 μM. The final concentration of DMSO was 0.5%, fetal bovine serum was 5%, in the assay media. Cells were harvested on day 3 by the addition of 1× cell lysis buffer (Ambion cat #8721). The replicon RNA level was measured using real time PCR (TaqMan® assay). The amplicon was located in 5B. The PCR primers were: 5B.2F, ATGGACAGGCGCCCTGA (SEQ. ID NO. 1); 5B.2R, […] (SEQ. ID NO. 2); the probe sequence was FAM-labeled CACGCCATGCGCTGCGG (SEQ. ID NO. 3). GAPDH RNA was used as endogenous control and was amplified in the same reaction as NS5B (multiplex PCR) using primers and VIC-labeled probe recommended by the manufacturer (PE Applied Biosystem). The real-time […] reactions were run on ABI PRISM 7900HT Sequence Detection System using the following program: 48° C. for 30 minutes, 95° C. for 10 minutes, 40 cycles of 95° C. for 15 sec, 60° C. for 1 minute. The ΔCT values (CT5B-CTGAPDH) were plotted against the concentration of test compound and fitted to the sigmoid dose-response model using XLfit4 (MDL). EC50 was defined as the concentration of inhibitor necessary to achieve ΔCT=1 over the projected baseline; EC90 the concentration necessary to achieve ΔCT=3.2 over the baseline. Alternatively, to quantitate the absolute amount of replicon RNA, a standard curve was established by including serially diluted T7 transcripts of replicon RNA in the Taqman assay. All TaqMan® reagents were from PE Applied Biosystems. Such an assay procedure was described in detail in e.g. Malcolm et al., Antimicrobial Agents and Chemotherapy 50: 1013-1020 (2006).
(§4) HCV replicon EC50 assay data for various replicons and mutants was calculated for selected compounds of the present invention using this method and is provided in the tables above herein.

[2] = test system: HCV 1a Y93H replicon; assay: Cell-based HCV replicon assay (TaqMan), 1a Y93H mutant replicon; conditions: EC90 = concentration for ΔCT=3.2 over baseline
Protocol: as §1, §2, §3, §4

[3] = test system: HCV 2b replicon; assay: Cell-based HCV replicon assay (TaqMan), genotype 2b replicon; conditions: Hepatitis C virus, 72 h, read-out: 2b EC90, HCV genotype 2b replicon cells, replicon RNA by real time PCR, day 3; EC90 = concentration for ΔCT=3.2 over baseline
Protocol: as §1, §2, §3, §4

[4] = Hepatitis C virus, 72 h, read-out: 1a Y93H EC90, HCV 1a Y93H mutant replicon cells, replicon RNA by real time PCR, day 3

| SMILES | EC90 ([1]; Hepatitis C virus, 72 h) | EC90 [2, 4] | EC90 [3] | EC90 [1] | EC90 ([2]; read-out: 1a Y93H EC90, HCV 1a Y93H mutant replicon cells, replicon RNA by real time PCR, day 3) |
| --- | --- | --- | --- | --- | --- |
| CC[C@H](NC(=O)OC)C(=O)N1C[Si](C)(C)C[C@H]1c1ncc(-c2ccc(-c3ccc4c(ccc5nc([C@@H]6CCCN6C(=O)[C@H](CC)NC(=O)OC)[nH]c54)c3)cc2)[nH]1 [Compound 44] | 0.3 nM | 302 nM | 171 nM | – | – |
| COC(=O)N[C@H](C(=O)N1C[Si](C)(C)C[C@H]1c1nc2ccc3cc(-c4ccc(-c5cnc([C@@H]6CCCN6C(=O)[C@@H](NC(=O)OC)C6CCCC6)[nH]5)cc4)ccc3c2[nH]1)C(C)C [Compound 85] | 0.52 nM | > 1000 nM | 330 nM | – | – |
| COC(=O)N[C@@H](CC1CC1)C(=O)N1CCC[C@H]1c1ncc(-c2ccc(-c3ccc4c(ccc5nc([C@@H]6C[Si](C)(C)CN6C(=O)[C@@H](NC(=O)OC)C(C)C)[nH]c54)c3)cc2)[nH]1 [Compound 83] | 0.46 nM | 528 nM | 406 nM | – | – |
| CC(C)(C)OC(=O)N1C[Si](C)(C)C[C@H]1c1nc2ccc3cc(-c4ccc(-c5cnc([C@@H]6C[C@H]7C[C@H]7N6C(=O)OC(C)(C)C)[nH]5)cc4)ccc3c2[nH]1 [Compound 104] | – | – | > 1000 nM | > 1000 nM | > 1000 nM |
| COC(=O)N[C@@H](Cc1cccc(O)c1)C(=O)N1C[Si](C)(C)C[C@H]1c1ncc(-c2ccc(-c3ccc4c(ccc5nc([C@@H]6CCCN6C(=O)[C@H](Cc6cccc(O)c6)NC(=O)OC)[nH]c54)c3)cc2)[nH]1 [Compound 37] | 2.52 nM | > 1000 nM | > 1000 nM | – | – |
| COC(=O)N[C@@H](C(=O)N1C[Si](C)(C)C[C@H]1c1ncc(-c2ccc(-c3ccc4c(ccc5nc([C@@H]6CCCN6C(=O)[C@H](NC(=O)OC)c6ccccc6)[nH]c54)c3)cc2)[nH]1)c1ccccc1 [Compound 53] | 7.27 nM | > 1000 nM | > 1000 nM | – | – |
| COC(=O)N[C@H](C(=O)N1C[Si](C)(C)C[C@H]1c1nc2ccc3cc(-c4ccc(-c5cnc([C@@H]6C[C@H]7C[C@H]7N6C(=O)[C@@H](NC(=O)OC)C6CCOCC6)[nH]5)cc4)ccc3c2[nH]1)C1CCOCC1 [Compound 99] | 0.14 nM | 42 nM | 3.5 nM | – | – |
| COC(=O)N[C@@H](Cn1cccn1)C(=O)N1C[Si](C)(C)C[C@H]1c1nc2ccc3cc(-c4ccc(-c5cnc([C@@H]6CCCN6C(=O)[C@@H](NC(=O)OC)C(C)C)[nH]5)cc4)ccc3c2[nH]1 [Compound 66] | 0.39 nM | > 1000 nM | 321 nM | – | – |
| COC(=O)N1CCOC[C@H]1C(=O)N1C[Si](C)(C)C[C@H]1c1ncc(-c2ccc(-c3ccc4c(ccc5nc([C@@H]6CCCN6C(=O)[C@@H]6COCCN6C(=O)OC)[nH]c54)c3)cc2)[nH]1 [Compound 39] | 149 nM | > 1000 nM | > 1000 nM | – | – |
| COC(=O)N[C@@H](Cc1cn(C)cn1)C(=O)N1C[Si](C)(C)C[C@H]1c1ncc(-c2ccc(-c3ccc4c(ccc5nc([C@@H]6CCCN6C(=O)[C@H](Cc6cn(C)cn6)NC(=O)OC)[nH]c54)c3)cc2)[nH]1 [Compound 40] | 2.57 nM | > 1000 nM | > 1000 nM | – | – |
| COC(=O)N[C@H](C(=O)N1C[Si](C)(C)C[C@H]1c1ncc(-c2ccc(-c3ccc4c(ccc5nc([C@@H]6CCCN6C(=O)[C@@H](NC(=O)OC)C6CC6)[nH]c54)c3)cc2)[nH]1)C1CC1 [Compound 51] | 0.51 nM | > 1000 nM | > 1000 nM | – | – |
| COC(=O)N[C@H](C(=O)N1CCC[C@H]1c1nc(Cl)c(-c2ccc(-c3ccc4c(ccc5nc([C@@H]6C[Si](C)(C)CN6C(=O)[C@@H](NC(=O)OC)C(C)C)[nH]c54)c3)cc2)[nH]1)C(C)C [Compound 94] | 0.19 nM | 935 nM | 184 nM | – | – |
| CC[C@H](C)[C@H](NC(=O)OC)C(=O)N1C[Si](C)(C)C[C@H]1c1nc2ccc3cc(-c4ccc(-c5cnc([C@@H]6CCCN6C(=O)[C@@H](NC(=O)OC)C(C)C)[nH]5)cc4)ccc3c2[nH]1 [Compound 59] | 0.61 nM | > 1000 nM | 245 nM | – | – |
| COC(=O)N[C@H](C(=O)N1CCC[C@H]1c1ncc(-c2ccc(-c3ccc4c(ccc5nc([C@@H]6C[Si](C)(C)CN6C(=O)[C@@H](NC(=O)OC)[C@@H](C)OC)[nH]c54)c3)cc2)[nH]1)C(C)C [Compound 60] | 0.21 nM | > 1000 nM | 52.8 nM | – | – |
| COC(=O)N[C@@H](Cc1cn(C)cn1)C(=O)N1C[Si](C)(C)C[C@H]1c1nc2ccc3cc(-c4ccc(-c5cnc([C@@H]6CCCN6C(=O)[C@@H](NC(=O)OC)C(C)C)[nH]5)cc4)ccc3c2[nH]1 [Compound 65] | 0.36 nM | 564 nM | 308 nM | – | – |
| COC(=O)N[C@@H](C(=O)N1C[Si](C)(C)C[C@H]1c1ncc(-c2ccc(-c3ccc4c(ccc5nc([C@@H]6CCCN6C(=O)[C@H](NC(=O)OC)C6CC6)[nH]c54)c3)cc2)[nH]1)C1CC1 [Compound 50] | > 1000 nM | > 1000 nM | > 1000 nM | – | – |
| COC(=O)N[C@@H](Cn1ncnn1)C(=O)N1C[Si](C)(C)C[C@H]1c1ncc(-c2ccc(-c3ccc4c(ccc5nc([C@@H]6CCCN6C(=O)[C@H](Cn6ncnn6)NC(=O)OC)[nH]c54)c3)cc2)[nH]1 [Compound 38] | 2.57 nM | > 1000 nM | 408 nM | – | – |
| COC(=O)N[C@H](C(=O)N1CCC[C@H]1c1ncc(-c2ccc(-c3ccc4c(ccc5nc([C@@H]6C[Si](C)(C)CN6C(=O)[C@@H](NC(=O)OC)C(C)OC)[nH]c54)c3)cc2)[nH]1)C(C)OC (stereo partly drawn) [Compound 19] | 0.036 nM | > 100 nM | > 100 nM | – | – |
| COC(=O)N[C@H](C)C(=O)N1C[Si](C)(C)C[C@H]1c1ncc(-c2ccc(-c3ccc4c(ccc5nc([C@@H]6CCCN6C(=O)[C@@H](C)NC(=O)OC)[nH]c54)c3)cc2)[nH]1 [Compound 49] | 386 nM | > 1000 nM | > 1000 nM | – | – |
| CCN(CC)[C@@H](C(=O)N1CCC[C@H]1c1ncc(-c2ccc(-c3ccc4c(ccc5nc([C@@H]6C[Si](C)(C)CN6C(=O)[C@@H](NC(=O)OC)C(C)C)[nH]c54)c3)cc2)[nH]1)c1ccccc1 [Compound 88] | 0.26 nM | 500 nM | 10.9 nM | – | – |
| COC(=O)N[C@H](C(=O)N1C[Si](C)(C)C[C@H]1c1ncc(-c2ccc(-c3ccc4c(ccc5nc([C@@H]6CCCN6C(=O)[C@@H](NC(=O)OC)C6CCCOCC6)[nH]c54)c3)cc2)[nH]1)C1CCCOCC1 (stereo partly drawn) [Compound 52] | 2.3 nM | > 1000 nM | 37 nM | – | – |
| CCN(CC)[C@@H](C(=O)N1CCC[C@H]1c1ncc(-c2ccc(-c3ccc4c(ccc5nc([C@@H]6C[Si](C)(C)CN6C(=O)[C@@H](c6ccccc6)N(CC)CC)[nH]c54)c3)cc2)[nH]1)c1ccccc1 [Compound 21] | 0.25 nM | > 100 nM | 0.39 nM | – | – |
